According to paper PMC9918900, “New Succinimide–Thiazolidinedione Hybrids as Multitarget Antidiabetic Agents: Design, Synthesis, Bioevaluation, and Molecular Modelling Studies” (Molecules, 2023):

Target: T1, α-amylase (Homo sapiens, UniProt P04746)
T1 sequence (P04746 16-511): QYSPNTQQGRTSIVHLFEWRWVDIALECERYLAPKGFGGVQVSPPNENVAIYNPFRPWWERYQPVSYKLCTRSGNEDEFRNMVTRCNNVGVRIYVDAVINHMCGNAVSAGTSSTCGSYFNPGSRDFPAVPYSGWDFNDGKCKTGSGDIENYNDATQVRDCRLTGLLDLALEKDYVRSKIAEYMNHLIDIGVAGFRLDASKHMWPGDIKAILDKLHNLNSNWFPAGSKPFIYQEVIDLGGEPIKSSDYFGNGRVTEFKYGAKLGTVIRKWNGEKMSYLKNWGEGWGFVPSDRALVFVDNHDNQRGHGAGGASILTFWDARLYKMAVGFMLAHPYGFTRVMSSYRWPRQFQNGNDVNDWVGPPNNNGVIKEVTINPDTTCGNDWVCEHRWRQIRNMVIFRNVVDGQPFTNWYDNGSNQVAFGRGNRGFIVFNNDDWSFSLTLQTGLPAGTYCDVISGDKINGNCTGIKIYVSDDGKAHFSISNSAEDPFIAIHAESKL
Assay: in vitro α-amylase inhibitory activity
Format: biochemical
Experimental: The test samples were added in alpha-amylase solution. The enzyme solution was prepared with enzyme and buffer solution. The mixture of the samples and enzyme was then incubated. Then, starch and dinitrosalicylic acid solution was added. The same was performed for both test compounds and the standard drug. […] The percent alpha-amylase inhibition activity and its IC50 values were calculated and confirmed as per the previous procedure.

Work on `CC(C)(C=C1SC(=O)N(C(=O)CN2CCOCC2)C1=O)C1CC(=O)N(Cc2ccccc2)C1=O` (stereo not drawn) [10d] yielded an IC50 of 12 µM, an inhibition at 31.25 µM (31.25 µM, read-out: % α-Amylase Inhibition (converted)) of 68.6% and an inhibition at 62.5 µM (62.5 µM, read-out: % α-Amylase Inhibition (converted)) of 70%. The inhibition at 125 µM (125 µM, read-out: % α-Amylase Inhibition (converted)) was 72.7%, the inhibition at 250 µM (250 µM, read-out: % α-Amylase Inhibition (converted)) was 76.3% and the inhibition at 500 µM (500 µM, read-out: % α-Amylase Inhibition) was 82.3 ± 1.2%.
